Read-outs that look alike come from different tables or passages of the source.
Columns and labels:
[1] = biological target: T1, E. coli topoIV (Escherichia coli, UniProt P0AFI2); experiment: topoIV relaxation inhibition assay (high-throughput plate assay); assay type: biochemical
T1 construct: purchased Inspiralis (Norwich, UK)
Method: (§1) To determine the IC50 values of the compounds for S. aureus and E. coli, a DNA gyrase supercoiling high-throughput plate assay and a topoIV relaxation high-throughput plate assay were performed. Assay kits and black streptavidin-coated 96-well microtiter plates are available from Inspiralis (Norwich, UK). For pre-screening, an inhibitor concentration of 100 μM was used. […] A nonlinear regression-based fit of the inhibition curves was used, with the log [inhibitor] versus slope of the reaction variables (four parameters) and a symmetric equation. […] To determine IC50 values, two independent repetitions were performed and the average was calculated.

[2] = tested on: K. pneumoniae; experiment: MIC, broth microdilution; assay type: cell-based
Method: (§2) For the determination of minimum inhibitory concentrations (MIC), the broth microdilution method was used in 96-well plate format, according to the guidelines of the Clinical and Laboratory Standards Institute and the recommendations of the European Committee on Antimicrobial Susceptibility Testing (EUCAST). The dilutions of the bacterial suspension of the specific bacterial strain, corresponding to the 0.5 McFarland turbidity standard, were prepared with […] Mueller–Hinton broth with TES (Thermo Fisher Scientific) to obtain an end inoculum of 10^5 CFU/mL. The compounds were dissolved in DMSO and mixed with the inoculum. […] The MIC was determined as the lowest concentration of antibiotic that prevented visible bacterial growth. Tetracycline was used as a positive control on each test plate.

[3] = tested on: P. aeruginosa RDK 184; experiment: MIC, broth microdilution; assay type: cell-based
Method: as §2

[4] = tested on: S. aureus (ATCC 29213); experiment: MIC, broth microdilution; assay type: cell-based
Method: as §2

[5] = tested on: E. coli ESBL QA-11.3; experiment: MIC, broth microdilution; assay type: cell-based
Method: as §2

[6] = tested on: E. coli (ATCC 25922); experiment: MIC, broth microdilution; assay type: cell-based
Method: as §2

[7] = tested on: A. baumannii; experiment: MIC, broth microdilution; assay type: cell-based
Method: as §2

[8] = tested on: E. coli D22; experiment: MIC, broth microdilution; assay type: cell-based; settings: Escherichia coli
Method: as §2

[9] = tested on: E. coli N43 (CGSC# 5583); experiment: MIC, broth microdilution; assay type: cell-based; settings: Escherichia coli
Method: as §2

[10] = tested on: E. faecalis RDK 057; experiment: MIC, broth microdilution; assay type: cell-based
Method: as §2

[11] = biological target: T2, S. aureus topoIV (Staphylococcus aureus, UniProt P0C1U9); experiment: biochemical; settings: relaxation inhibition; mean of two independent measurements ± SD
T2 construct: purchased Inspiralis (Norwich, UK)
T2 sequence (P0C1U9 whole entry): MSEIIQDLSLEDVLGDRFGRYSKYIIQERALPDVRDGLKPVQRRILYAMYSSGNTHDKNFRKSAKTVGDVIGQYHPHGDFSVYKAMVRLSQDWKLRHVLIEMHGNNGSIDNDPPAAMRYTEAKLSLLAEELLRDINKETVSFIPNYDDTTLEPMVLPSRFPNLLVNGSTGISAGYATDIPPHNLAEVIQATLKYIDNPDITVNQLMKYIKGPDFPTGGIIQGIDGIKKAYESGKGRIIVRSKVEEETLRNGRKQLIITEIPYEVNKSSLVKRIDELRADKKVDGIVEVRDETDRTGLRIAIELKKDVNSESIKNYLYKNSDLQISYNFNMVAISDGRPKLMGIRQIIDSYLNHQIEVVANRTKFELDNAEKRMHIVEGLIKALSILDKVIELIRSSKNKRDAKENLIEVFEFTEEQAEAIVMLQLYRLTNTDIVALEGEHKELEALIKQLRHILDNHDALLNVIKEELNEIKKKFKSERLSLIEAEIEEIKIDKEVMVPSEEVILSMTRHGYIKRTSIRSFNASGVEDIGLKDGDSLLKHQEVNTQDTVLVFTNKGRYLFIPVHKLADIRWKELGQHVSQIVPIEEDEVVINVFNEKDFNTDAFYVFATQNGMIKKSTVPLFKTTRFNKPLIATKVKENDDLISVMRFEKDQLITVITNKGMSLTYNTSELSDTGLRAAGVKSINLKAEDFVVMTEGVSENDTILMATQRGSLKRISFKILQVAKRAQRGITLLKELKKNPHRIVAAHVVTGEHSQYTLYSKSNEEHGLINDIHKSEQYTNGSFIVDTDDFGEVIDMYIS
T2 sequence (P0C1S7 whole entry partner): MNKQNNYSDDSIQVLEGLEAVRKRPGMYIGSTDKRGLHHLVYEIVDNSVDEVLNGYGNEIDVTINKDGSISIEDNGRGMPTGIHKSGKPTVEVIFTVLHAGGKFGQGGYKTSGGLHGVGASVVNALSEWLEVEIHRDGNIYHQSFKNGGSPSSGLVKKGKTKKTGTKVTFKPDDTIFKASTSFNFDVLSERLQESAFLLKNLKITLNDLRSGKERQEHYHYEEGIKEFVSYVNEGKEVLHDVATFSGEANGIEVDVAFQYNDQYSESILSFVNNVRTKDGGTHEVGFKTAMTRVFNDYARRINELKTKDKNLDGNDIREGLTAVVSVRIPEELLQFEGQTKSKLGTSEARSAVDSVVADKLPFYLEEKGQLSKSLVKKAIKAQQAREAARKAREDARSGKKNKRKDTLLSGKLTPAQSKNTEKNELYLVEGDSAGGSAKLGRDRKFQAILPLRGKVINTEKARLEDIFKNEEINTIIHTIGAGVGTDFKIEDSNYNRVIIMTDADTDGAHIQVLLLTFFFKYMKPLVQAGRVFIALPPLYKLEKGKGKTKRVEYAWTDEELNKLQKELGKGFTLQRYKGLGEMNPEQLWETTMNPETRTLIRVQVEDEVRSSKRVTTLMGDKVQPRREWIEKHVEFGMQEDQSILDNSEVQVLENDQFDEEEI
Method: as §1

[12] = biological target: T3, S. aureus DNA gyrase (Staphylococcus aureus, UniProt P20831); experiment: biochemical; settings: supercoiling inhibition; mean of two independent measurements ± SD
T3 construct: purchased Inspiralis (Norwich, UK)
Method: as §1

[13] = biological target: T4, human topoisomerase IIα (Homo sapiens, UniProt P11388); experiment: human topoisomerase II alpha relaxation high-throughput assay (selectivity); assay type: biochemical; settings: residual activity at 100 µM compound; mean ± SD, two independent experiments; read-out: Human TopoIIα (% RA at 100 µM)
T4 construct: purchased Inspiralis (Norwich, UK)
T4 sequence (P11388 whole entry): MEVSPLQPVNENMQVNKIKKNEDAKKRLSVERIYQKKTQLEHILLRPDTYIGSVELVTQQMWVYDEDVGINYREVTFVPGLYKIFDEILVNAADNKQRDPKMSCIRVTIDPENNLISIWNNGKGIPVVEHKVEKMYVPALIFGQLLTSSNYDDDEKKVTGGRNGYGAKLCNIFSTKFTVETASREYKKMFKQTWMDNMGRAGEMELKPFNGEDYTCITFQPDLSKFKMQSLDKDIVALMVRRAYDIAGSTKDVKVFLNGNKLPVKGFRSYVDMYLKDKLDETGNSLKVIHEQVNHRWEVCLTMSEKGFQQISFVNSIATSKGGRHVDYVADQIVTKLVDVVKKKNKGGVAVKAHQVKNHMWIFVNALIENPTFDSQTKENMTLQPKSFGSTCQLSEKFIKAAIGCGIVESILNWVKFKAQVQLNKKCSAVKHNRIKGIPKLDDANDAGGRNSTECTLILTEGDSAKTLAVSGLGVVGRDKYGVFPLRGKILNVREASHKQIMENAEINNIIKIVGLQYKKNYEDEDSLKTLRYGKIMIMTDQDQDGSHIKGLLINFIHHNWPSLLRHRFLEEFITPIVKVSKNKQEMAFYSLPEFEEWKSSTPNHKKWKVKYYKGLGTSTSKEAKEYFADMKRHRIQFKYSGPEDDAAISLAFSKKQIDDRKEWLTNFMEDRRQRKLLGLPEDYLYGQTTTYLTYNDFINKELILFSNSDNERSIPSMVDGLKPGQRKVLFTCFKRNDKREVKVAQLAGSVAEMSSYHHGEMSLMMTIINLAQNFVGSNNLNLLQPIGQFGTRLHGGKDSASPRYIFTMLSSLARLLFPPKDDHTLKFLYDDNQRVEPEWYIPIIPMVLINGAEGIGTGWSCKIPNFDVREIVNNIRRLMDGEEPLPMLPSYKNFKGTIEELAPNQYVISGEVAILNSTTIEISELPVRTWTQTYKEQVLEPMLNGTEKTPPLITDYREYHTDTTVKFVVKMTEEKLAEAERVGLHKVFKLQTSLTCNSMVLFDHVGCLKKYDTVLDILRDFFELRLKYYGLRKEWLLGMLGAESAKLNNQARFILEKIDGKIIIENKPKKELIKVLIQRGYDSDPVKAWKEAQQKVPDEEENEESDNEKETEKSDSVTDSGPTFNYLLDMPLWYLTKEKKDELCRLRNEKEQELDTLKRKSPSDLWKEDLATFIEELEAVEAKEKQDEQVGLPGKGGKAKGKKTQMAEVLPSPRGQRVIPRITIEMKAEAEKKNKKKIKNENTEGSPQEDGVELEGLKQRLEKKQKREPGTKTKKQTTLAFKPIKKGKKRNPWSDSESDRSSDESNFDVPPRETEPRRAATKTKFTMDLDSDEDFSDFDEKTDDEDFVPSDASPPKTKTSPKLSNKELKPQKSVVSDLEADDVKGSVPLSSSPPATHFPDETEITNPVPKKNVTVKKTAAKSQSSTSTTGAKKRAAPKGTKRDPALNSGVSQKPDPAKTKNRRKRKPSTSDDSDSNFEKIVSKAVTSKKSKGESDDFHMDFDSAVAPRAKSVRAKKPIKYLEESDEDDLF
Method: For selectivity determination, a human topoisomerase II alpha relaxation high-throughput assay was used. The assay kits and black streptavidin-coated 96-well microtiter plates are available from Inspiralis (Norwich, UK). Two independent measurements were performed with an inhibitory concentration of 100 µM. Raw data were calculated as the mean ± SD percentage of the residual enzyme activity.

[14] = Metabolic activity assessment (cytotoxicity), CellTiter 96 Aqueous One; assay type: cell-based; settings: human, 72 h treatment, means of three independent measurements ± SD
Method: HUVEC (ATCC® CRL-1730™) and HepG2 (ATCC® HB-8065™) cell lines were cultured in Dulbecco’s Modified Eagle Medium (DMEM; Sigma-Aldrich, St. Louis, MO, USA) supplemented with 10% heat-deactivated FBS (Gibco, Grand Island, NE, USA), 2 mM L-glutamine, 100 U/mL penicillin, 100 μg/mL streptomycin (all from Sigma-Aldrich, St. Louis, MO, USA) in a humidified chamber at 37 °C and 5% CO2. The experiments were carried out on passages 4–7 for both cell lines. The tested compounds were dissolved in DMSO and further diluted in culture medium to a desired final concentration. The cells were then seeded into 96-well plates at 5 × 10^4 cells/mL (100 μL/well) or 8 × 10^4 cells/mL (100 μL/well) for HUVEC and HepG2, respectively. The cells were then incubated for 24 h to allow attachment onto the wells. The cells were treated with 1 μM and 50 μM of each compound of interest, or the corresponding vehicle as control. […] Their metabolic activity was assessed after 72 h treatment using a CellTiter 96 Aqueous One Solution Cell Proliferation Assay (Promega, Madison, WI, USA), in accordance with the manufacturer’s instructions. The absorbance was measured at 492 nm on an automated microplate reader, Tecan Spark (Tecan Group Ltd., Männedorf, CH, Switzerland). Data are presented as the percentage of metabolic activity of control cells stimulated with vehicle, or as an IC50 value (mean ± SD) from three independent experiments, each conducted in triplicate (for screening) or duplicate (for IC50 determination). IC50 values were calculated using a non-linear regression model and with Graph Pad Prism 9 software.

[15] = biological target: T5, E. coli DNA gyrase (Escherichia coli, UniProt P0AES4); experiment: DNA gyrase supercoiling inhibition assay (high-throughput plate assay); assay type: biochemical
T5 construct: purchased Inspiralis (Norwich, UK)
Method: as §1

[16] = read-out: MIC E. coli N43 (CGSC# 5583)

T1 sequence (P20083 whole entry): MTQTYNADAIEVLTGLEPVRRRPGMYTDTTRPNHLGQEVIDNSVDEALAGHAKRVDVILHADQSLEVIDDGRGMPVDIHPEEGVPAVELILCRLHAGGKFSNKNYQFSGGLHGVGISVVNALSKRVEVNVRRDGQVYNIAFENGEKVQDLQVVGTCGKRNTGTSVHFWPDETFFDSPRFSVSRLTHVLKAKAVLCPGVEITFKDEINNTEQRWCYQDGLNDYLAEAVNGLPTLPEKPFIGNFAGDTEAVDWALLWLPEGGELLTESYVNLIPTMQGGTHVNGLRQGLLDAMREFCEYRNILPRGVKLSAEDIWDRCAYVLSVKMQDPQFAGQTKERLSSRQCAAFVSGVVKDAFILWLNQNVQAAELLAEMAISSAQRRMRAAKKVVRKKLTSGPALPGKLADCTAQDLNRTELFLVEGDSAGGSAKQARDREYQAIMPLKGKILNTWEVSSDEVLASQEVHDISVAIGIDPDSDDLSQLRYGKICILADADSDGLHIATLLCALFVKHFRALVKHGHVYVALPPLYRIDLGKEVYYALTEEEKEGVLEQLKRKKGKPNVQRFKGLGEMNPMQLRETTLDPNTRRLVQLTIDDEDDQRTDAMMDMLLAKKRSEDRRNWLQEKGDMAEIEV
T1 sequence (P0AFI2 whole entry): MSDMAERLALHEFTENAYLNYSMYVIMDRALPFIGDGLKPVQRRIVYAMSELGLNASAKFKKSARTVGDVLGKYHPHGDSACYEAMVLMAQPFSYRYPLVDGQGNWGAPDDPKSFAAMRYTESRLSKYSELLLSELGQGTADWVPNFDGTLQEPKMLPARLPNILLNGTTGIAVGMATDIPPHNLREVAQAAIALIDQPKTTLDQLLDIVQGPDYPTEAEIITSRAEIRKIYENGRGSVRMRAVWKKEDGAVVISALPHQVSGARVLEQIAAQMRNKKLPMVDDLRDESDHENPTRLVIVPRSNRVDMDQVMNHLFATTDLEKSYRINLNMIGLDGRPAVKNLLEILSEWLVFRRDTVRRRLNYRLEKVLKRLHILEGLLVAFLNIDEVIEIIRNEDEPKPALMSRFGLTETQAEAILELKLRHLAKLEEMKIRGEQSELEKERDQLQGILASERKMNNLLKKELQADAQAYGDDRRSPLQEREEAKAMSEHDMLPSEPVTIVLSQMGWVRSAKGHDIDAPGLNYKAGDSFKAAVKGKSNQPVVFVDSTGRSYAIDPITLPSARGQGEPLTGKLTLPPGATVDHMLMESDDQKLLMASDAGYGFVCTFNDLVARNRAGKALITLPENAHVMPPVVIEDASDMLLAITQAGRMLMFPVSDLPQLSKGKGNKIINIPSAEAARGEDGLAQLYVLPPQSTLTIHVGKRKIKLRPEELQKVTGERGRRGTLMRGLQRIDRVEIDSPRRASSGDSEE

COc1ccc2nccc(CCN3CCC(NCc4ccc(N)cc4)CC3)c2n1 [Compound 9, N-(4-Aminobenzyl)-1-(2-(6-methoxy-1,5-naphthyridin-4-yl)ethyl)piperidin-4-amine]
164 µM: MIC ([4]; Staphylococcus aureus, ATCC29213, read-out: MIC (μM) S. aureus (ATCC 29213)) | MIC ([9]; read-out: MIC (μM) E. coli N43)
64 µg/mL: MIC ([4]; Staphylococcus aureus, ATCC29213; read-out: MIC S. aureus (ATCC 29213)) | MIC [9, 16]
34 ± 16.9 µM: IC50 at 72 h ([14]; HUVEC cells (ATCC CRL-1730))
5.698 ± 0.014 µM: IC50 [1]
> 328 µM: MIC ([2]; Klebsiella pneumoniae, 20 h; Table S3; read-out: MIC (μM) K. pneumoniae) | MIC ([3]; Pseudomonas aeruginosa, RDK184, 20 h; Table S3; read-out: MIC (μM) P. aeruginosa RDK 184) | MIC ([5]; Escherichia coli, ESBLQA11.3, 20 h; Table S3; read-out: MIC (μM) E. coli ESBL QA:11.3) | MIC ([6]; Escherichia coli, ATCC25922, 20 h; Table S3; read-out: MIC (μM) E. coli (ATCC 25922)) | MIC ([7]; Acinetobacter baumannii, 20 h; Table S3; read-out: MIC (μM) A. baumannii) | MIC ([8]; D22, 20 h, Table S3, lpxC mutation, read-out: MIC (μM) E. coli D22) | MIC ([10]; Enterococcus faecalis, RDK057; Table S3; read-out: MIC (μM) E. faecalis DRK 057)
> 100 µM: IC50 [11] | IC50 [15]
100 ± 1%: remaining activity at 100 µM [13]
1.38 ± 0.108 µM: IC50 [12]
26.1 ± 9.52 µM: IC50 at 72 h ([14]; HepG2 cells (ATCC HB-8065))
> 128 µg/mL: MIC ([2]; Klebsiella pneumoniae; read-out: MIC K. pneumoniae) | MIC ([3]; Pseudomonas aeruginosa, RDK184; read-out: MIC P. aeruginosa RDK 184) | MIC ([5]; Escherichia coli, ESBLQA11.3; read-out: MIC E. coli ESBL QA-11.3) | MIC ([6]; Escherichia coli, ATCC25922; read-out: MIC E. coli (ATCC 25922)) | MIC ([7]; Acinetobacter baumannii; read-out: MIC A. baumannii) | MIC ([8]; D22, lpxC mutation that increases membrane permeability, read-out: MIC E. coli D22) | MIC ([10]; Enterococcus faecalis, RDK057; read-out: MIC E. faecalis RDK 057)

COc1ccc2nccc(OCC3CCC(NCc4ccc(N)cc4)CC3)c2n1 (centres unmarked) [Compound 10, 4-(((4-(((6-methoxy-1,5-naphthyridin-4-yl)oxy)methyl)cyclohexyl)amino)methyl)aniline]
> 128 µg/mL: MIC ([2]; Klebsiella pneumoniae, read-out: MIC K. pneumoniae) | MIC ([3]; Pseudomonas aeruginosa, RDK184, read-out: MIC P. aeruginosa RDK 184) | MIC ([4]; Staphylococcus aureus, ATCC29213, read-out: MIC S. aureus (ATCC 29213)) | MIC ([5]; Escherichia coli, ESBLQA11.3, read-out: MIC E. coli ESBL QA-11.3) | MIC ([6]; Escherichia coli, ATCC25922, read-out: MIC E. coli (ATCC 25922)) | MIC ([7]; Acinetobacter baumannii, read-out: MIC A. baumannii) | MIC ([8]; D22, read-out: MIC E. coli D22) | MIC [9, 16] | MIC ([10]; Enterococcus faecalis, RDK057, read-out: MIC E. faecalis RDK 057)
> 100 µM: IC50 [1] | IC50 [11] | IC50 [12] | IC50 [15]
99 ± 1%: remaining activity at 100 µM [13]
> 328 µM: MIC ([2]; Klebsiella pneumoniae, 20 h, read-out: MIC (μM) K. pneumoniae) | MIC ([3]; Pseudomonas aeruginosa, RDK184, 20 h, read-out: MIC (μM) P. aeruginosa RDK 184) | MIC ([4]; Staphylococcus aureus, ATCC29213, 20 h, read-out: MIC (μM) S. aureus (ATCC 29213)) | MIC ([5]; Escherichia coli, ESBLQA11.3, 20 h, read-out: MIC (μM) E. coli ESBL QA:11.3) | MIC ([6]; Escherichia coli, ATCC25922, 20 h, read-out: MIC (μM) E. coli (ATCC 25922)) | MIC ([7]; Acinetobacter baumannii, 20 h, read-out: MIC (μM) A. baumannii) | MIC ([8]; D22, 20 h, read-out: MIC (μM) E. coli D22) | MIC ([9]; 20 h, read-out: MIC (μM) E. coli N43) | MIC ([10]; Enterococcus faecalis, RDK057, read-out: MIC (μM) E. faecalis DRK 057)
> 50 µM: IC50 at 72 h ([14]; HUVEC cells (ATCC CRL-1730)) | IC50 at 72 h ([14]; HepG2 cells (ATCC HB-8065))
